From BindingDB's records for doi:10.1016/s0960-894x(01)00776-4 (Wyeth-Ayerst Research, 2002) come the findings set out here.

This assay is described as follows: Inhibition of Src-transformed fibroblast cell proliferation.

The term IC50 denotes the concentration that gives 50% inhibition. A lower IC50 goes with greater potency. Compound `COc1cc(Nc2c(C#N)cnc3cc(OC)c(OC)cc23)c(C)cc1Cl` registered an IC50 of 2.4 µM.
